Results on 2 substances are retold here after US4725576A, “Fungicidal polypeptide compositions containing L-histidine and methods for use therefore” (priority 1985, dated 1988).

Assay [1] relates to C. albicans. Description: HRP added to growing C. albicans cells (FIG. 1). It counts as cell-based, Candida albicans. To be noted: data not shown. On the procedure:
FIG. 1 is a plot showing the effect of the salivary histidine-rich polypeptide on the growth of C. albicans.
When HRP was not placed in the growth medium initially but was added to growing cells, the following observations were noted (FIG. 1).

In assay [2] the test system is Candida Albicans 18804. The assay can be described thus: Proliferation of Candida albicans 18804 on denture acrylic strips, poly-L-histidine. It counts as cell-based. On the procedure: Denture acrylic was uniformly cut into strips of dimension 1/8 inches×1/8 inches×31/2 inches. Each strip was attached to the inside of the cap of the screw cap tube (13 X 100 mm) such that the bottom of each strip lay 3/8 inches from the bottom of each tube. Tubes containing denture strips were sterilized in the ethylene oxide sterilizer. In this experiment, poly-L-histidine was dissolved in 0.025 M MES buffer, pH 5.2 with heating. As in the previous experiment, denture strips were first pretreated with poly-L-histidine (4 mg per ml) overnight prior to incubation with Candida albicans for 21/4 hours. Strips were then transferred to YSM without poly-histidine (controls) or to YSM containing poly-histidine at 2 mg per ml. Although there was precipitation of the poly-L-histidine in the YSM, strips were incubated for 24 hours until controls had reached an optical density at 600 nm=1.2 corresponding to 10^7 colony-forming units per ml. As in experiment with the L-histidine heptapeptide, strips were then transferred to YSM without poly-L-histidine and the growth curve was followed by monitoring the increase in turbidity.

In assay [3] the test system is S. mutans SB. Description: Preincubation in acidic buffer, growth and viability of S. mutans SB. It counts as cell-based, Streptococcus mutans. To be noted: for % Loss of Viability / GFU (colony forming units) / O.D. 675 nm: 500 μg/ml. As to the method: ^a S. mutans SB at 5 × 10^5 colony forming units per ml was
suspended and preincubated in MES buffer, pH 5.2, at an ionic strength of
0.025 for 1 and 2 hours at 37° C. Preincubation included various
dilution into Todd Hewitt dialysis growth media.
^b Optical densities were measured after 24 hours and 48 hours (value
in parenthesis) incubation at 37° C. for both 1 and 2 hour
^c Colony forming units were determined in duplicate after 24 hours
for both 1 and 2 hour preincubations. They were also determined after 48
hours on those 2 hour preincubation samples showing zero density (values

Setting [4] is: 1 hour preincubation, after 24 hours.
The mark [5] stands for this setting: 2 hours preincubation, after 24 hours.
Setting [6] is: 2 hours preincubation, after 48 hours (in parenthesis).

As for Poly-L-histidine, the “effectiveness on growth of C. albicans compared to HRP” value in assay [1] was “similarly effective to the HRP”. Moreover, in assay [2] (compare Table 8 to Table 7), the “effectiveness compared to His-7” value is recorded as “even more effective than His-7”. Moreover, in assay [2] (denture strips, Table 8), the “time for which growth is inhibited” value was 80 h. Further, the “Optical Density at 600 nm” value in assay [2] (strips 4 mg per ml overnight, then YSM with 2 mg per ml 24 hours, then YSM without poly-L-histidine, 0 hours of incubation) is listed as “.02”.

Turning to HEWL: hen egg white lysozyme, the “bacteriocidal activity for S. mutans SB” value in assay [3] (1 or 2 hours preincubation in MES buffer, pH 5.2) is given as “bacteriocidal activity”. Besides, the “% Loss of Viability” value in assay [3] (setting [4]) is given as 69.0%; in assay [3] (setting [5]) it was 100%; in assay [3] (setting [6]) it was 100%. The results for the “GFU (colony forming units)” value in assay [3] (setting [4]), in assay [3] (setting [5]) and in assay [3] (setting [6]) were 35.5 × 10^9, 0 and 0, respectively. For the same substance, the “O.D. 675 nm” value in assay [3] (1 hour preincubation, after 24 hours incubation) is 0.08; in assay [3] (2 hours preincubation, after 24 hours incubation), 0; in assay [3] (2 hours preincubation, after 48 hours incubation (in parenthesis)), 0. Besides, in assay [3] (2 hour preincubation in the MES), the “bacteriocidal effect after 48 hours of incubation” value is given as “continue to be bacteriocidal”. The “optical densities after 48 hours in the growth media” value in assay [3] (cells previously exposed for 1 hour in the MES buffer) is recorded as “attained optical densities similar to the controls”.
